Seven compounds from ChEMBL document CHEMBL1137055, “Pyrazolo[1,5-a]pyrimidines as estrogen receptor ligands: defining the orientation of a novel heterocyclic core” (Bioorg Med Chem Lett, 2004) can be followed below.

The target of test [1] is Estrogen receptor beta (Homo sapiens) (UniProt Q92731). The test can be described thus: Binding affinity for Estrogen receptor beta compared to estradiol (100%).
Test [2] deals with T1, Estrogen receptor (Homo sapiens) (UniProt P03372).
T1 sequence (whole entry): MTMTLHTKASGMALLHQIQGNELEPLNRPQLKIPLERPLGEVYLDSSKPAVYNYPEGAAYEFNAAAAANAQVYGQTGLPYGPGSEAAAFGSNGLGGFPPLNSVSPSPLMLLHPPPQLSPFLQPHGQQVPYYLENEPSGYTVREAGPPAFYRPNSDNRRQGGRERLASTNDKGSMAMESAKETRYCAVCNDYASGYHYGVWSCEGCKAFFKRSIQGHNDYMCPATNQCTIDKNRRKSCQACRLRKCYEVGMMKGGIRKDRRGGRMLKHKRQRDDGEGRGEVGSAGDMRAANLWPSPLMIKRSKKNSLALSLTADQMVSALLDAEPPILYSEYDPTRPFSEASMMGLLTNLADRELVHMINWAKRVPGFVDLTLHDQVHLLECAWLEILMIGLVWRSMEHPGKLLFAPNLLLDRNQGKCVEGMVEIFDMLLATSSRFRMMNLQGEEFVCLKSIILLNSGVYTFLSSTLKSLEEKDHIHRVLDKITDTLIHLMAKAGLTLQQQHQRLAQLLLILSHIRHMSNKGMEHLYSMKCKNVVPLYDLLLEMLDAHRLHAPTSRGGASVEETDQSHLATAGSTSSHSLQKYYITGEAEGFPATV
The test can be described thus: Binding affinity for Estrogen receptor alpha compared to estradiol (100%).

Each structure is given as a SMILES string.

Estrogen receptor beta (Homo sapiens), sequence (Q92731 whole entry): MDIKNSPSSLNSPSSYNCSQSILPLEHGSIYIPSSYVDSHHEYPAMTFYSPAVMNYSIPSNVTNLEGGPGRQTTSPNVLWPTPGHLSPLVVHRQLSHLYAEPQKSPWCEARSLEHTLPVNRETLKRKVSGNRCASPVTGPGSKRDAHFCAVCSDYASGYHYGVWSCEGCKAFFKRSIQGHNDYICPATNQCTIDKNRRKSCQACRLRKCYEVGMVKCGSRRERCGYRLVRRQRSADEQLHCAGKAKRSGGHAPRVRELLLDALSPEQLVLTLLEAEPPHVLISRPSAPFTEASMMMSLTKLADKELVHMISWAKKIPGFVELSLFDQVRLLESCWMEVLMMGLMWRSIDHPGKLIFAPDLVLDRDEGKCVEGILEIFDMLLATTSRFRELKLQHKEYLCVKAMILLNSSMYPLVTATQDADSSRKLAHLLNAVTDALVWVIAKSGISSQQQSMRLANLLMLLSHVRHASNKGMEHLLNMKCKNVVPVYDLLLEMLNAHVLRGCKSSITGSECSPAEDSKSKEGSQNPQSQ

For the compound `Oc1ccc(-c2c(-c3ccccc3)nn3cccnc23)cc1`, the Binding affinity in test [1] worked out at 0.02%; in test [2], 0.007%.

In the case of `Oc1ccc(-c2c(-c3ccccc3)nn3cc(O)cnc23)cc1`, the Binding affinity in test [1] was determined as 0.006%.

Consider `Oc1ccc(-c2nn3cc(O)cnc3c2-c2ccccc2)cc1`, for which the values for the Binding affinity in test [1] and in test [2] were 0.01% and 0.003%, respectively.

For the compound `Oc1cnc2c(-c3ccccc3)c(-c3ccccc3)nn2c1`, the Binding affinity in test [1] came out at 0.005%.

Turning to `Oc1ccc(-c2nn3cccnc3c2-c2ccccc2)cc1`, the figures for the Binding affinity in test [1] and in test [2] were 0.05% and 0.01%, respectively.

Regarding `Oc1ccc(-c2nn3cccnc3c2-c2ccc(O)cc2)cc1`, the Binding affinity in test [1] came to 0.1%; in test [2] it was 0.004%.

For `Oc1ccc(-c2nn3cc(O)cnc3c2-c2ccc(O)cc2)cc1`, the figures for the Binding affinity in test [1] and in test [2] were 0.03% and 0.004%, respectively.
